Calls of active or inactive are those of the source. No rule for the calls is given here.

Results on 37 compounds are retold here after PubChem BioAssay AID1322 (NMMLSC, 2008).

This test concerns the target Bcl-2-like protein 1 (Homo sapiens) (UniProt Q07817). Put plainly: Bcl-XL binding to Bim peptide disruption – biochemical, multiplexed, bead flow cytometry, human Bcl-XL, dose response (AID 1322). As to inhibition: test concentration not given here. Conditions: Bead-based flow cytometry, MCF; for inhibition: hits give high values.

Sequence of Bcl-2-like protein 1 (Homo sapiens) (Q07817 whole entry, looked up): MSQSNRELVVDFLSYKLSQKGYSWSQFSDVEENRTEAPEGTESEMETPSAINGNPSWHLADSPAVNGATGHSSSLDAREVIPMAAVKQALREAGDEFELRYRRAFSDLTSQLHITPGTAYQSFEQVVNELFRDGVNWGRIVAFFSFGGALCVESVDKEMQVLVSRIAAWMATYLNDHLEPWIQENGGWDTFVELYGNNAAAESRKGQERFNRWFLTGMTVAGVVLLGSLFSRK

For the compound `C=CCn1c(C)c(C(C)=O)c(N2CCOCC2)nc1=S`, the inhibition entry is “inactive”.

As for `O=[N+]([O-])c1c(NCCCO)cc(Sc2nc3ccccc3s2)c2nonc12`, the inhibition result was “inactive”.

Turning to `NC(=O)c1c(NC(=O)C2CCCO2)sc2c1CCCC2` (configuration not stated), the inhibition result is “inactive”.

Regarding `Cc1ccc(-c2nnc(Cc3ccc(Cl)cc3)o2)cc1`, the inhibition entry is “inactive”.

`COC(=O)Cc1cc(=O)[nH]c(Nc2nc3ccccc3o2)n1`: the inhibition result is “inactive”.

As for `CCOC(=O)CSC1=NC(=O)/C(=C/c2ccc(Br)cc2)S1`, the outcome was inactive.

On to `O=C(O)c1cccc(NC2=C(Cl)C(=O)c3ccccc3C2=O)c1`, for which the result was inactive.

Consider `COC(=O)c1ccc(C)c(NC(=O)CCNC(=O)c2ccc([N+](=O)[O-])cc2)c1`, for which the inhibition entry was “inactive”.

Regarding `O=C1C=C(Nc2ccccc2)C(=O)c2ccccc21`, the inhibition entry was “inactive”.

In the case of `CC1(C(=O)N(CC(=O)NC2CCCC2)Cc2ccco2)CC(=O)N=C2C=CC=CN21` (configuration not stated), the inhibition entry was “inactive”.

Turning to `Cc1ccc(/C=C2/NC(=O)N(Cc3ccc(Br)cc3)C2=O)o1`, the inhibition entry is “inactive”.

For the compound `CC(=O)NC(=O)Nc1sc(=S)n(C)c1C`, the inhibition result was “inactive”.

For the compound `Cc1cc(C)c2nc3nc(C)c(C)cc3c(N)c2c1`, the inhibition entry is “inactive”.

`N/C(=N\OC(=O)CCC1CCCC1)c1ccncc1`: the outcome was inactive.

Turning to `CC(C)n1nnnc1SCC(=O)N1CCN(C(=O)c2ccco2)CC1`, the inhibition entry is “inactive”.

Take `CSc1n[nH]c2nc3c(c(=O)n12)C1(CCCC1)Cc1ccccc1-3`: the outcome was inactive.

`CCOc1ccc(C(=O)Nc2nnn(CC)n2)cc1`: the inhibition result is “inactive”.

On to `Cc1cc(-c2csc(N)n2)c(C)n1C`, for which the inhibition entry is “inactive”.

For the compound `CN(C)c1ccc(/C=C2/SC(=O)N(CCN=C3NS(=O)(=O)c4ccccc43)C2=O)cc1`, the inhibition entry is “inactive”.

As to `COc1cccc(C(=O)/C=C/Nc2ccc(S(=O)(=O)Nc3onc(C)c3C)cc2)c1`, the inhibition result is “inactive”.

For the compound `N=C1C(c2nc3ccccc3s2)=C(O)CN1Cc1ccccc1`, the inhibition entry was “inactive”.

Regarding `Cc1occc1C(=O)NNC(=S)NCc1ccccc1`, the inhibition result was “inactive”.

Turning to `CCc1ccc(NC(=O)CC2NCCNC2=O)cc1` (configuration not stated), the inhibition result is “inactive”.

Consider `CC(=O)Nc1ccc(NC2=C(Cl)C(=O)c3ccccc3C2=O)cc1`, for which the inhibition result was “inactive”.

In the case of `CC(C)(C)c1nc(NCCN2CCOCC2)c2nnn(Cc3ccccc3Cl)c2n1`, the inhibition entry is “inactive”.

For the compound `C#CCOCCOCCOCCNc1nc(N2CCN(C(=O)[C@H]([C@@H](C)CC)n3cc([C@@H](N)CC(C)C)nn3)CC2)nc(N2CCN(C(=O)[C@H](Cc3cc4ccccc4[nH]3)n3cc([C@@H](N)Cc4ccc(O)cc4)nn3)CC2)n1`, the inhibition result is “inactive”.

In the case of `O=C(Nc1cccc(Cl)c1)Nc1ccc(Cl)cn1`, the inhibition result was “inactive”.

For `CCc1ccc(NC(=O)Cc2ccc(OC)cc2)cc1`, the result was inactive.

`COc1ccc(NC(=O)c2sccc2SCc2cccc(C(F)(F)F)c2)cc1`: the inhibition entry was “inactive”.

Consider `CCOC(=O)C1(Cc2cccc(OC)c2)CCN(Cc2cccc(OC)c2OC)CC1`, for which the result was inactive.

In the case of `CCOc1ccccc1C(=O)NC1CC2CCCC(C1)N2C1CC1` (configuration not stated), the inhibition entry was “inactive”.

In the case of `c1ccc(C2=Nc3cccc4cccc(c34)N2)cc1`, the inhibition entry is “inactive”.

With `CCOc1cccc(CNc2ccc(O)cc2)c1OCc1ccc(Cl)cc1`, the inhibition result is “inactive”.

Take `Cc1nc2scc(-c3ccccc3)c2c(=O)n1N=C1C=CC(=O)C=C1`: the inhibition result is “inactive”.

On to `COc1ccc(NC(=O)c2c(F)cccc2F)cc1S(=O)(=O)Nc1ccc(Br)cc1`, for which the inhibition entry is “inactive”.

For the compound `CC1CC2=C(NC(=S)NC2c2cccc(F)c2)/C(=C/c2cccc(F)c2)C1` (configuration not stated), the result was inactive.

For the compound `S=C1NC2=C(CCC/C2=C\c2ccccc2)C(c2ccccc2)N1` (configuration not stated), the inhibition result was “inactive”.
